Measurements reported in PMC10296061, “Inhibition of the Mitochondrial Carnitine/Acylcarnitine Carrier by Itaconate through Irreversible Binding to Cysteine 136: Possible Pathophysiological Implications” (Biomolecules, 2023).

Tests used:
Type in all cases: biochemical
Settings in all cases: read-out: IC50 for itaconate inhibition
[1] = target: T1, recombinant ORC (hORC1) (Homo sapiens, UniProt Q9Y619); experiment: [3H]ornithine transport in proteoliposomes reconstituted with recombinant ORC
T1 construct: encodes a full-length hORC1 protein with a His6 tag before the termination codon; His6 (C); made in house; host or cells: E. coli C0214
T1 sequence (Q9Y619 1-301): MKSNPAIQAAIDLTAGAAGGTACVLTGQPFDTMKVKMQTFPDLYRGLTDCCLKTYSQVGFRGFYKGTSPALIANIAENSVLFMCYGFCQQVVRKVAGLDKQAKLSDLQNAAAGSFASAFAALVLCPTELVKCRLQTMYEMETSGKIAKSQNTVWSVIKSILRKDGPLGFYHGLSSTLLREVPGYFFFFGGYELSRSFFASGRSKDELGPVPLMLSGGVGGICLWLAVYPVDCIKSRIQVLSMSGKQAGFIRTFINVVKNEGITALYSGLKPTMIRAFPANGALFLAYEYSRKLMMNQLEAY
Text: The 903 bp cDNA coding for the hORC1Wild Type (WT) protein was amplified from the Mega Man Human Transcriptome Library with the forward and reverse primers 5′-[…]-3′ and 5′-[…]-3′, containing the NdeI and HindIII sites, respectively. The amplified cDNA was then cloned in the NdeI/HindIII sites of the pET-21a(+) expression vector. The resulting recombinant plasmid, defined as pET-21a(+)-hORC1, encodes a full-length hORC1 protein with a His6 tag before the termination codon. […]
(§1) To test the transport activity of the CAC, 550 μL of proteoliposomes was passed through a Sephadex G-75 column to remove the external substrate. […] Transport rates were measured in 10 min, i.e., within the initial linear range of the time course, at 25 °C. After terminating the transport reaction, the external substrate was removed by chromatography on the Sephadex G-75 column, and the intraliposomal radioactivity was measured. […]
Figure 3 Identification of residue responsible for itaconate inhibition. […] Transport activity of the WT (○), C136A (●), C155A (Δ), C23V/C58V/C89S/C155V/C283S (▲), and C23V/C58V/C89S/C136V/C155V/C283S (□) was measured by adding 0.1 mM [^3H]carnitine after treatment by itaconate at the indicated concentrations. […] Transport activity was measured by adding 0.1 [^3H]ornithine, respectively, as described in Materials and Methods. […]

[2] = target: T2, CAC C155A mutant (Rattus norvegicus, UniProt P97521, C155A); experiment: Transport assay in proteoliposomes, CAC mutant C155A
T2 construct: made in house; host or cells: E. coli C0214
T2 sequence (P97521 1-301 C155A): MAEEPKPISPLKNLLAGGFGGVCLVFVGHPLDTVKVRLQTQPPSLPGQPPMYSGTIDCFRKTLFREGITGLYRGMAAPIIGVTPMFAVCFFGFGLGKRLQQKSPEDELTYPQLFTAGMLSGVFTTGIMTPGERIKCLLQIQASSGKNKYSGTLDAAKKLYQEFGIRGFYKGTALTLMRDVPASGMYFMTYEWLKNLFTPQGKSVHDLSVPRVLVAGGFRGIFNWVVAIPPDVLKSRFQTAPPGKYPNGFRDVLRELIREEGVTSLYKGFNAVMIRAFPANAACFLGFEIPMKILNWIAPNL
Method: As previously described, the pMW7-WTratCAC recombinant plasmid was used for over-expressing the rat CAC [22]. The overlap extension method was used to introduce the mutations; in the main time, NdeI and HindIII restriction sites were also added using appropriate primers. The PCR products were purified by the QIAEX II Gel Extraction Kit (QIAGEN) and digested with NdeI and HindIII and then ligated into the pMW7. All mutations were verified by DNA sequencing. The resulting plasmid constructs were transformed into E. coli C0214. Overexpression, inclusion body fraction preparation, and purification of the CAC proteins were performed as previously described. […]
as §1
(§2) Figure 3 Identification of residue responsible for itaconate inhibition. […] Transport activity of the WT (○), C136A (●), C155A (Δ), C23V/C58V/C89S/C155V/C283S (▲), and C23V/C58V/C89S/C136V/C155V/C283S (□) was measured by adding 0.1 mM [^3H]carnitine after treatment by itaconate at the indicated concentrations. […]

[3] = target: T3, native ornithine/citrulline carrier (ORC, SLC25A15) (Rattus norvegicus, UniProt A0A0G2K309); experiment: [3H]ornithine transport in proteoliposomes reconstituted with native ORC
T3 construct: from tissue; host or cells: rat liver mitochondria
T3 sequence (A0A0G2K309 1-301): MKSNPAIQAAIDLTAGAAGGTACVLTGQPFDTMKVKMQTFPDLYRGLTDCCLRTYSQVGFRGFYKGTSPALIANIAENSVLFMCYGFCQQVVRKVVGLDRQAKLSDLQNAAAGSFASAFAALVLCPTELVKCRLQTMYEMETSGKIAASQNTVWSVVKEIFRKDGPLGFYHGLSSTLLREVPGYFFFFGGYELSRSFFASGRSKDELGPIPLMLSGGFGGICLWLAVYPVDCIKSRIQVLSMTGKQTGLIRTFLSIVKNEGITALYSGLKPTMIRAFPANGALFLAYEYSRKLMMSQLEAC
Text: As previously described, recombinant CAC (WT and mutants) and ORC1 proteins were used for proteoliposome formation. For experiments with native CAC, ORC1, or ANT proteins, rat liver mitochondria, or HeLa cell mitochondria, the latter for the CAC alone, were first purified using the standard procedure of cell disruption and differential centrifugation. Then proteins were extracted using 3% Triton X-100 and reconstituted as described for the recombinant proteins. The concentration of intraliposomal carnitine and ornithine was 15 mM and 30 mM, respectively, in all samples.
as §1, §2

C=C(CC(=O)O)C(=O)O [itaconate] showed an IC50 [1] of 44 ± 6 mM, an IC50 [2] of 3.8 ± 0.64 mM and an IC50 [3] of 52 ± 5.5 mM.
